The source of these data is ChEMBL document CHEMBL1156293, “Synthesis of a novel tricyclic 1,2,3,4,4a,5,6,10b-octahydro-1,10-phenanthroline ring system and CXCR4 antagonists with potent activity against HIV-1” (Bioorg Med Chem Lett, 2010).

Series [1] concerns Human immunodeficiency virus 1. The series can be described thus: Antiviral activity against HIV1 3B in human HOS cells expressing human […]/pHIV-LTR-luciferase assessed as blockade of viral infection into cells. It is filed as functional, organism-based. The conditions noted are these: Human immunodeficiency virus 1, 3B.
Series [2] in a line: Cytotoxicity against human HOS cells. It is filed as cell-based.
Series [3] in a line: Volume of distribution at steady state in rat at 1 mg/kg, iv. Type of series: ADME, organism-based. Also noted: dose 1 mg/kg, route intravenous. The conditions noted are these: in vivo, read-out: Vdss.
The test system of a further series is Rattus norvegicus. The series can be described thus: Dose normalized AUC in rat at 3 mg/kg, po. It is filed as ADME, organism-based. Also noted: dose 3 mg/kg, route oral. The conditions noted are these: in vivo.
Series [4] is described as follows: Volume of distribution at steady state in dog at 1 mg/kg, iv. It is filed as ADME, organism-based, Canis lupus familiaris. Also on record: dose 1 mg/kg, route intravenous. The conditions noted are these: in vivo, read-out: Vdss.
Series [5] is described as follows: Half life in rat at 3 mg/kg, po. It is filed as ADME, organism-based. Also on record: dose 3 mg/kg, route oral. The conditions noted are these: in vivo.
For the next series, the system named is Canis familiaris. The series can be described thus: Dose normalized AUC in dog at 3 mg/kg, po. Type of series: ADME, organism-based, Canis lupus familiaris. Also on record: dose 3 mg/kg, route oral. The conditions noted are these: in vivo.
Series [6] in a line: Half life in dog at 3 mg/kg, po. It is filed as ADME, organism-based, Canis lupus familiaris. Also on record: dose 3 mg/kg, route oral. The conditions noted are these: in vivo.

As to `CN(C)CCCn1c(CN2CCC[C@@H]3CCc4cccnc4[C@@H]32)nc2ccccc21`, the IC50 (commonly the concentration needed to halve the response being measured) in series [1] is 0.53 µM. The CC50 (commonly the concentration giving 50% cytotoxicity) in series [2] came out at 4.2 µM.
For the molecule `CN1CCC(N(C)c2cccc3nc(CN4CCC[C@H]5CCc6cccnc6[C@H]54)cn23)C1` (some centres undefined), in series [1], the IC50 turned out to be 0.009 µM. In series [2], this molecule yielded a CC50 of 1.57 µM.
In the same order, the values of `CN(C)CCN(C)c1cccc2nc(CN3CCC[C@H]4CCc5cccnc5[C@H]43)cn12` are 0.005 µM and 1.45 µM.
In the same order, the values of `c1cnc2c(c1)CC[C@@H]1CCCN(Cc3cn4c(N5CCN6CCCC6C5)cccc4n3)[C@H]21` (some centres undefined) are 0.002 µM and 2.98 µM.
Consider `CN1CCN(c2cccc3nc(CN(C)[C@H]4CCCc5cccnc54)cn23)CC1`, for which the Vd is 5.5 L/kg in series [3] and 7.6 L/kg in series [4]. In addition, the AUC (as a rule, the area under the concentration-time curve, a measure of exposure) is 100 ng·h/mL/(mg/kg) in the series with Rattus norvegicus and 160 ng·h/mL/(mg/kg) in the series with Canis familiaris. Further, the half-life (in general, the time needed for the level to fall by half in the phase considered) in series [5] is 4.9 h; in series [6], 8.5 h.
`CN1CCN(c2cccc3nc(CN4CCC[C@@H]5CCc6cccnc6[C@H]54)cn23)CC1`: the IC50 in series [1] was 0.05 µM. For the same molecule, half-maximal cytotoxicity in series [2] (CC50) was put at 9.9 µM.
In the same order, the values of `c1cnc2c(c1)CC[C@@H]1CCCN(Cc3cn4c(N5CCOCC5)cccc4n3)[C@H]21` are 1.2 µM and 6.6 µM.
As for `CN(C)[C@@H]1CCN(c2cccc3nc(CN4CCC[C@H]5CCc6cccnc6[C@H]54)cn23)C1`, the IC50 in series [1] worked out at 0.021 µM. The molecule also registered a CC50 in series [2] of 1.6 µM.
In the same order, the values of `CN1CCN(c2cccc3nc(CN4CCCC5CCc6cccnc6C54)cn23)CC1` (racemic) are 0.032 µM and 9.6 µM.
In the same order, the values of `CN1CCC(N(C)c2cccc3nc(CN4CCC[C@H]5CCc6cccnc6[C@H]54)cn23)CC1` are 0.038 µM and 1.3 µM.
As for `CN(C)CCCn1c(CN2CCC[C@H]3CCc4cccnc4[C@@H]32)nc2ccccc21`, in series [1], the IC50 is 0.33 µM. Besides, it took 3.7 µM to reach half-maximal cytotoxicity in series [2] (CC50).
In the same order, the values of `CN(C)C1CCN(c2cccc3nc(CN4CCC[C@H]5CCc6cccnc6[C@H]54)cn23)CC1` are 0.015 µM and 3.85 µM.
In the same order, the values of `CN(C)CCCn1c(CN2CCC[C@H]3CCc4cccnc4[C@H]32)nc2ccccc21` are 0.035 µM and 6 µM.
In the same order, the values of `CN1CCN(c2cccc3nc(CN4CCC[C@@H]5CCc6cccnc6[C@@H]54)cn23)CC1` are 0.1 µM and 8.5 µM.
Take `CN(C)CCCn1c(CN2CCC[C@@H]3CCc4cccnc4[C@H]32)nc2ccccc21`: the IC50 in series [1] is 0.14 µM. Besides, the CC50 in series [2] amounted to 3.5 µM.
